Results reported in EP1586565A1, “Substituted polycyclic aryl and heteroaryl pyrazinones useful for selective inhibition of the coagulation cascade” (Pharmacia Corporation, priority 1999, dated 2000).

Assays:
Human factor Xa = biological target: T1, Human factor Xa (Homo sapiens, UniProt P00742); test: Xa Assay; assay type: biochemical; details: % inhibition at 30 µM (cells with % or %@30, bare 0)
T1 construct: leads from XII to XIIa to XIa to IXa and to the conversion of X to Xa; purchased Enzyme Research Laboratories, South Bend IN

TF-VIIa = biological target: T2, TF-VIIa (Homo sapiens, UniProt P08709); test: TF-VIIa Assay; assay type: biochemical; details: for IC50 or % Inhibition TF-VIIa (30 µM): % inhibition at 30 µM (cells with % or %@30, bare 0); for IC50: cells printed as bare numbers (IC50), read-out: IC50 or % Inhibition TF-VIIa (30 µM)
T2 construct: An extrinsic pathway is initiated by the conversion of coagulation factor VII to VIIa by Xa; purchased American Diagnostica, Greenwich CT; Soluble TF was made in house in E. coli

Trypsin = Trypsin (Sus scrofa, UniProt P00761); test: Trypsin Assay; details: for IC50 or % Inhibition Trpysin II (30 uM): % inhibition at 30 uM (cells with % or %@30, bare 0); for IC50: read-out: IC50 or % Inhibition Trpysin II (30 uM), cells printed as bare numbers (IC50)
Chain of Trypsin (P00761 9-231): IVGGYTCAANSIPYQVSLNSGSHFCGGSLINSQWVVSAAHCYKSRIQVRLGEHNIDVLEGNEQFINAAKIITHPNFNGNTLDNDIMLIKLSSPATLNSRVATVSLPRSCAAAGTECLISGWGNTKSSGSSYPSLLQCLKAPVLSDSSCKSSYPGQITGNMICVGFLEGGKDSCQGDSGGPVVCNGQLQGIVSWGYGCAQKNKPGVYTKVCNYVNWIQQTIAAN

T2 sequence (P08709 213-466 limits assumed): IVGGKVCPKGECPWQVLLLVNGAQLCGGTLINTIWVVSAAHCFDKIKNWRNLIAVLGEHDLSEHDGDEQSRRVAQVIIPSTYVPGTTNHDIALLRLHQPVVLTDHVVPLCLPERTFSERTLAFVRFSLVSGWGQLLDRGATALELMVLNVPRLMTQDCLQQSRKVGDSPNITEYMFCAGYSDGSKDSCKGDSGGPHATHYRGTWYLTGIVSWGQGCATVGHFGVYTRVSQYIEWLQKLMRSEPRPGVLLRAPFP
T2 sequence (P08709 61-212 limits assumed): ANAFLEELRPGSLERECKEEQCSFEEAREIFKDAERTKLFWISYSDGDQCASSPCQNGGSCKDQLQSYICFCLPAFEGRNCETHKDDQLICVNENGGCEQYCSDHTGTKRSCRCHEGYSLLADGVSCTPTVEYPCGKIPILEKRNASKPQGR
T2 sequence (P13726 33-251 partner limits assumed): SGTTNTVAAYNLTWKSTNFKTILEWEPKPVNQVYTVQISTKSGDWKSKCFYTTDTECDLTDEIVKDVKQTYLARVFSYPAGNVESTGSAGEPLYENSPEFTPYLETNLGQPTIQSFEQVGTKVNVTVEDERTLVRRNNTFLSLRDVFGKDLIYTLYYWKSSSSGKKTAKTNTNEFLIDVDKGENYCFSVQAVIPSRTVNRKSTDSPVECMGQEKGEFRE
T1 sequence (P00742 235-488 limits assumed): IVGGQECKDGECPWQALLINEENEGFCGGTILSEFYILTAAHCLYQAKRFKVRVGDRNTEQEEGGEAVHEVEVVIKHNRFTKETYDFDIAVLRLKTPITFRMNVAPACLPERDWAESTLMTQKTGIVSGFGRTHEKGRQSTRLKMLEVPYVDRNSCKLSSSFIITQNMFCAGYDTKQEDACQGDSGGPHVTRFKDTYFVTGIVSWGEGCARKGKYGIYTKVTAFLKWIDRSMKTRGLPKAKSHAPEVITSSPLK
T1 sequence (P00742 41-179 limits assumed): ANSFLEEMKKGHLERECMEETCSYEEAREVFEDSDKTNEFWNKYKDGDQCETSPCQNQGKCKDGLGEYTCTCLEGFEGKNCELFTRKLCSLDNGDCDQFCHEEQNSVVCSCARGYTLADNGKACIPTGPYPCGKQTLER

Row | SMILES | IC50 or % Inhibition Factor Xa (30 µM) (Human factor Xa) | IC50 or % Inhibition TF-VIIa (30 µM) (TF-VIIa) | IC50 or % Inhibition Trpysin II (30 uM) (Trypsin) | IC50 (TF-VIIa) [µM] | IC50 (Trypsin) [µM]
1 | CC(C)Nc1nc(Cl)c(-c2cccc([N+](=O)[O-])c2)n(CC(=O)NCc2ccc(C(N)=NO)cc2)c1=O [Example 61] | 0% | 1% | 10% | – | –
2 | Nc1ccc(CNC(=O)Cn2c(Cc3ccccc3)c(Cl)nc(NCCc3ccccc3)c2=O)cn1 [Example 9] | – | – | – | > 30 | > 30
3 | Nc1cccc(-c2c(Cl)nc(NC3CCC3)c(=O)n2CC(=O)NCCc2ccccc2)c1 [compound 89] | 5%@30 | 5%@30 | 9%@30 | – | –
4 | N=C(N)c1ccc(CNC(=O)Cn2c(-c3ccccc3)c(Cl)nc(NCC3CC3)c2=O)cc1 [1517-43] | 0% | 25% | 43% | – | –
5 | N=C(N)c1ccc(CNC(=O)Cn2c(-c3ccc(-c4ccccc4)cc3)c(Cl)nc(NCCc3cccc(Cl)c3)c2=O)cc1 [1471-70] | 12% | 10% | – | – | –
6 | N=C(N)c1ccc(CNC(=O)Cn2c(-c3ccc(Cl)cc3)c(Cl)nc(NCCN3CCOCC3)c2=O)cc1 [1471-20] | 34% | 42% | – | – | –
7 | N=C(N)c1ccc(CNC(=O)Cn2c(-c3ccccc3)c(Cl)nc(NCc3cc(F)cc(C(F)(F)F)c3)c2=O)cc1 [1512-29] | 4% | 47% | – | – | –
8 | COc1ccc(-c2c(Cl)nc(NCCc3cccnc3)c(=O)n2CC(=O)NCc2ccc(C(=N)N)cc2)cc1 [1471-40] | 11% | 40% | – | – | –
9 | N=C(N)c1ccc(CNC(=O)Cn2c(-c3ccc(-c4ccccc4)cc3)c(Cl)nc(NCc3ccncc3)c2=O)cc1 [1471-67] | 16% | 12% | – | – | –
10 | N=C(N)c1ccc(CNC(=O)Cn2c(-c3ccccc3)c(Cl)nc(NCc3ccccn3)c2=O)cc1 [1507-24] | 15% | 0% | 25%@30 | – | –
11 | Nc1ccc(CNC(=O)Cn2c(CCc3ccccc3)c(Cl)nc(NCCc3ccccc3)c2=O)cn1 [Example 10, 3-(2-Phenylethylamino)-5-chloro-6-phenethyl-1-(2-amino-5-methylcarboxamidomethylpyridinyl)pyrazinone] | – | – | – | > 30 | > 30
12 | N=C(N)c1ccc(CNC(=O)Cn2c(-c3ccc(-c4ccccc4)cc3)c(Cl)nc(NCCc3ccccc3)c2=O)cc1 [1471-71] | 0% | 6% | – | – | –
13 | CCc1c(Cl)nc(NCCc2cccc(Cl)c2)c(=O)n1CC(=O)NCc1ccc(C(=N)N)cc1 [1471-62] | 0% | 4% | – | – | –
14 | Nc1cccc(-c2c(Cl)nc(NC3CCC3)c(=O)n2CC(=O)NCc2ccccc2)c1 [compound 99] | 8%@30 | 6%@30 | 7%@30 | – | –
15 | COc1ccc(-c2c(Cl)nc(NCc3ccncc3)c(=O)n2CC(=O)NCc2ccc(C(=N)N)cc2)cc1 [1471-35] | 22% | 37% | – | – | –
16 | COc1ccc(-c2c(Cl)nc(NCCN3CCOCC3)c(=O)n2CC(=O)NCc2ccc(C(=N)N)cc2)cc1 [1471-36] | 6% | 11% | – | – | –
17 | N=C(N)c1ccc(CNC(=O)Cn2c(-c3ccccc3)c(Cl)nc(NC3Cc4ccccc4C3)c2=O)cc1 [1507-08] | 1% | 7% | – | – | –
18 | N=C(N)NCC#CCNC(=O)Cn1c(-c2ccccc2)cnc(NCCc2ccccc2)c1=O [Example 36] | 0% | 5% | 30% | – | –
